# Data reported in patent US10280169B2, “Biaryl bruton's tyrosine kinase inhibitors” (BIOGEN MA INC., priority 2013, dated 2019).
# How the values were obtained:
# [1] = molecular target: T1, BTK (Homo sapiens, UniProt Q06187); assay: In vitro BTK kinase assay: BTK-POLYGAT-LS assay; type: biochemical; settings: 10 uM ATP, read-out: IC50 (10 uMATP)
# T1 construct: purchased Upstate 14-552
# [2] = molecular target: T2, pBTK (Homo sapiens, UniProt Q06187); assay: In vitro PD assay in whole blood (pBTK assay); type: cell-based; settings: 30 min at 37° C.
# T2 construct: Heparinized venous blood was purchased from Bioreclamation, Inc. or SeraCare Life Sciences; tissue Bioreclamation, Inc. or SeraCare Life Sciences; host or cells: heparinized venous whole blood
# Experimental: Heparinized venous blood was purchased from Bioreclamation, Inc. or SeraCare Life Sciences and shipped overnight. Whole blood was aliquoted into 96-well plate and “spiked” with serial dilutions of test compound in DMSO or with DMSO without drug. The final concentration of DMSO in all wells was 0.1%. The plate was incubated at 37° C. for 30 min. Lysis buffer containing protease and phosphatase inhibitors was added to the drug-containing samples and one of the DMSO-only samples (+PPi, high control), while lysis buffer containing protease inhibitors was added to the other DMSO-only samples (−PPi, low control). All of the lysed whole blood samples were subjected to the total BTK capture and phosphotyrosine detection method described in Example 30. ECL values were graphed in Prism and a best-fit curve with restrictions on the maximum and minimum defined by the +PPi high and −PPi low controls was used to estimate the test compound concentration that results in 50% inhibition of ECL signal by interpolation.
# In some instances where a compound tested has activity “D”, other structurally similar compounds beyond the measurable limits of the assay are not included in Table 2.
# T2 sequence (Q06187 whole entry): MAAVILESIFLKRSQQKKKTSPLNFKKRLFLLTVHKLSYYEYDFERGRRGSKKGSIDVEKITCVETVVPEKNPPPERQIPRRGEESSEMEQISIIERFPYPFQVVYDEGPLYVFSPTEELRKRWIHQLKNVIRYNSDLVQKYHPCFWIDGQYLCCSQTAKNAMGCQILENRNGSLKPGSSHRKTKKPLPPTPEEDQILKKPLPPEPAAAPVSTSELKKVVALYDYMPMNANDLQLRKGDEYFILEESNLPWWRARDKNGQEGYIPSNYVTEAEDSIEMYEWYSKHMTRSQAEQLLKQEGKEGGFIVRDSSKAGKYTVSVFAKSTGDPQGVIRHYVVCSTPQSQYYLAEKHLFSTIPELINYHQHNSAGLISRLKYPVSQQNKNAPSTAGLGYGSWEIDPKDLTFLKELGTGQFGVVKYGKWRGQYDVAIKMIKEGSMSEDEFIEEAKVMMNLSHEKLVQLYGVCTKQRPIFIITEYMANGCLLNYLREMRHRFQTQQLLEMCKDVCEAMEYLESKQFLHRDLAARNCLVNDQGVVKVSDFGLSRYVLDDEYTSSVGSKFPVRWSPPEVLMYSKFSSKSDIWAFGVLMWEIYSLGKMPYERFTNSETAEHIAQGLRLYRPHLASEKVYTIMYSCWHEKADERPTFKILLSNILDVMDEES
# T1 sequence (Q06187 whole entry): as above
Compound,IC50 [1] [µM],IC50 [2] [µM]
"Cc1cc(-c2ncnc3cc(-c4cnn(C)c4)[nH]c23)ccc1C(CO)NC(=O)c1cc2c(s1)CCOC2 (stereo not drawn) [Example I-45, N-(2-hydroxy-1-(2-methyl-4-(6-(1-methyl-1H-pyrazol-4-yl)-5H-pyrrolo[3,2-d]pyrimidin-4-yl)phenyl)ethyl)-6,7-dihydro-4H-thieno[3,2-c]pyran-2-carboxamide]",0.01 to 0.099,1.5 to 10
"O=C(N[C@H]1CCCc2cc(-c3ncnc4[nH]ccc34)ccc21)c1cc2c(s1)CCCC2 [Example I-89, (S)—N-(6-(7H-Pyrrolo[2,3-d]pyrimidin-4-yl)-1,2,3,4-tetrahydronaphthalen-1-yl)-4,5,6,7-tetrahydrobenzo[b]thiophene-2-carboxamide]",< 0.01,1.5 to 10
"CC(C)(C)c1csc(C(=O)NC2CCCc3cc(-c4ncnc5[nH]ncc45)ccc32)n1 (stereo not drawn) [Example I-98, N-(6-(1H-pyrazolo[3,4-d]pyrimidin-4-yl)-1,2,3,4-tetrahydronaphthalen-1-yl)-4-(tert-butyl) thiazole-2-carboxamide]",< 0.01,> 10
"Cc1cc(-c2ncnc3[nH]c(-c4cnn(C)c4)cc23)ccc1C(C)NC(=O)c1cnc(C(C)(C)C)s1 (stereo not drawn) [Example I-112, 2-(tert-butyl)-N-(1-(2-methyl-4-(6-(1-methyl-1H-pyrazol-4-yl)-7H-pyrrolo[2,3-d]pyrimidin-4-yl)phenyl)ethyl)thiazole-5-carboxamide]",< 0.01,< 0.5
"Cc1cc(-c2ncnc3[nH]c(-c4cnn(C)c4)cc23)ccc1C(C)NC(=O)c1cc2c(s1)CCOC2 (stereo not drawn) [Example I-113, N-(1-(2-methyl-4-(6-(1-methyl-1H-pyrazol-4-yl)-7H-pyrrolo[2,3-d]pyrimidin-4-yl)phenyl)ethyl)-6,7-dihydro-4H-thieno[3,2-c]pyran-2-carboxamide]",< 0.01,1.5 to 10
"Cc1cc(-c2ncnc3cc[nH]c23)ccc1CNC(=O)c1cnc(C(C)(C)C)s1 [Example I-115, 2-(tert-butyl)-N-(2-methyl-4-(5H-pyrrolo[3,2-d]pyrimidin-4-yl)benzyl)thiazole-5-carboxamide]",< 0.01,0.5 to 1.5
"Cc1cc(-c2ncnc3cc[nH]c23)ccc1CNC(=O)c1cc2c(s1)CCCC2 [Example I-116, N-(2-methyl-4-(5H-pyrrolo[3,2-d]pyrimidin-4-yl)benzyl)-4,5,6,7-tetrahydrobenzo[b]thiophene-2-carboxamide]",< 0.01,1.5 to 10
"Cc1cc(-c2ncnc3[nH]ncc23)ccc1CNC(=O)c1nc2c(s1)CCCC2 [Example I-119, 4,5,6,7-Tetrahydro-benzothiazole-2-carboxylic acid 2-methyl-4-(1H-pyrazolo[3,4-d]pyrimidin-4-yl)-benzylamide]",< 0.01,1.5 to 10
"O=C(NCc1ccc(-c2ncnc3[nH]ccc23)cc1C(F)(F)F)c1nc2c(s1)CCCC2 [Example I-122, N-(4-(7H-pyrrolo[2,3-d]pyrimidin-4-yl)-2-(trifluoromethyl)benzyl)-4,5,6,7-tetrahydrobenzo[d]thiazole-2-carboxamide]",0.01 to 0.099,1.5 to 10

# Results, then the compound that gave them:
IC50 [1] [µM],IC50 [2] [µM],Compound
< 0.01,0.5 to 1.5,"Cc1cc(-c2ncnc3cc(-c4cnn(C)c4)[nH]c23)ccc1C(CO)NC(=O)c1cnc(C(C)(C)C)s1 (stereo not drawn) [Example I-44, 2-(tert-butyl)-N-(2-hydroxy-1-(2-methyl-4-(6-(1-methyl-1H-pyrazol-4-yl)-5H-pyrrolo[3,2-d]pyrimidin-4-yl)phenyl)ethyl)thiazole-5-carboxamide]"
< 0.01,< 0.5,"Cc1cc(-c2ncnc3cc(-c4cnn(C)c4)[nH]c23)ccc1C(C)NC(=O)c1cnc(C(C)(C)C)s1 (stereo not drawn) [Example I-46, 2-(tert-butyl)-N-(1-(2-methyl-4-(6-(1-methyl-1H-pyrazol-4-yl)-5H-pyrrolo[3,2-d]pyrimidin-4-yl)phenyl)ethyl)thiazole-5-carboxamide]"
< 0.01,< 0.5,"Cc1cc(-c2ncnc3nc(N4CCN(C)CC4)[nH]c23)ccc1CNC(=O)c1cnc(C(C)(C)C)s1 [Example I-47, 2-(tert-butyl)-N-(2-methyl-4-(8-(4-methylpiperazin-1-yl)-7H-purin-6-yl)benzyl)thiazole-5-carboxamide]"
< 0.01,< 0.5,"Cc1cc(-c2ncnc3nc(N4CCOCC4)[nH]c23)ccc1CNC(=O)c1cnc(C(C)(C)C)s1 [Example I-48, 2-(tert-butyl)-N-(2-methyl-4-(8-morpholino-7H-purin-6-yl)benzyl)thiazole-5-carboxamide]"
< 0.01,0.5 to 1.5,"Cc1cc(-c2ncnc3nc(N4CCC(N(C)C)CC4)[nH]c23)ccc1CNC(=O)c1cnc(C(C)(C)C)s1 [Example I-49, 2-(tert-butyl)-N-(4-(8-(4-(dimethylamino)piperidin-1-yl)-7H-purin-6-yl)-2-methylbenzyl)thiazole-5-carboxamide]"
< 0.01,< 0.5,"Cc1cc(-c2ncnc3nc(N4CCC(C(=O)O)CC4)[nH]c23)ccc1CNC(=O)c1cnc(C(C)(C)C)s1 [Example I-52, 1-(6-(4-((2-(tert-butyl)thiazole-5-carboxamido)methyl)-3-methylphenyl)-7H-purin-8-yl)piperidine-4-carboxylic acid]"
< 0.01,1.5 to 10,"Cc1cc(-c2ncnc3[nH]ccc23)ccc1C(C)NC(=O)c1cc2c(s1)CCCC2 (stereo not drawn) [Example I-78, N-(1-(2-methyl-4-(7H-pyrrolo[2,3-d]pyrimidin-4-yl)phenyl)ethyl)-4,5,6,7-tetrahydrobenzo[b]thiophene-2-carboxamide]"
< 0.01,1.5 to 10,"Cc1cc(-c2ncnc3[nH]ncc23)ccc1CNC(=O)c1cc2c(s1)CCCC2 [Example I-85, N-(2-methyl-4-(1H-pyrazolo[3,4-d]pyrimidin-4-yl)benzyl)-4,5,6,7-tetrahydrobenzo[b]thiophene-2-carboxamide]"
< 0.01,1.5 to 10,"O=C(N[C@H]1CCCc2cc(-c3ncnc4[nH]ncc34)ccc21)c1cc2c(s1)CCCC2 [Example I-87, (S)—N-(6-(1H-Pyrazolo[3,4-d]pyrimidin-4-yl)-1,2,3,4-tetrahydronaphthalen-1-yl)-4,5,6,7-tetrahydrobenzo[b]thiophene-2-carboxamide]"
